Measured values as given in ChEMBL document CHEMBL5131486, “Design, synthesis, biological evaluation and molecular modeling of N-isobutyl-N-((2-(p-tolyloxymethyl)thiazol-4yl)methyl)benzo[d][1,3] dioxole-5-carboxamides as selective butyrylcholinesterase inhibitors” (Bioorg Med Chem Lett, 2022).
The source made the active and inactive calls. No cut-off for these calls is given here.

What was measured:
Cholinesterase [1] = biological target: T1, Cholinesterase (Homo sapiens, UniProt P06276); test: Inhibition of BuchE (unknown origin)
T1 sequence (P06276 whole entry): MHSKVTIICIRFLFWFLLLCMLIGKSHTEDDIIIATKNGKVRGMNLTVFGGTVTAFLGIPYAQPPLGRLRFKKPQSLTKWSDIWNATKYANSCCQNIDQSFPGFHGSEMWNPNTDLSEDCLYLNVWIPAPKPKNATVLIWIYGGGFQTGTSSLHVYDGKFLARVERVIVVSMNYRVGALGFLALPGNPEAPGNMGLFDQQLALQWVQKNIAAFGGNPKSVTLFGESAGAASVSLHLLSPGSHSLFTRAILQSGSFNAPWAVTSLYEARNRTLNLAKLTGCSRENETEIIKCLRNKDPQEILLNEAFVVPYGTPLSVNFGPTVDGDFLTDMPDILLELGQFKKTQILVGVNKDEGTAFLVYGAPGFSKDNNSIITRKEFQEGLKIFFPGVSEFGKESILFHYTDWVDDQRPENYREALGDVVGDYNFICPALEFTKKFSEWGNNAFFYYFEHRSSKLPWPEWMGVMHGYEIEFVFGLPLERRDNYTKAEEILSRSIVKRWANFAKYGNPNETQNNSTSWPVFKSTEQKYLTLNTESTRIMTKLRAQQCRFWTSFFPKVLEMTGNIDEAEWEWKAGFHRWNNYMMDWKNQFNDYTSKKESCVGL

Acetylcholinesterase [2] = biological target: T2, Acetylcholinesterase (Homo sapiens, UniProt P22303); test: Inhibition of AChE (unknown origin) at 10 uM relative to control
T2 sequence (P22303 whole entry): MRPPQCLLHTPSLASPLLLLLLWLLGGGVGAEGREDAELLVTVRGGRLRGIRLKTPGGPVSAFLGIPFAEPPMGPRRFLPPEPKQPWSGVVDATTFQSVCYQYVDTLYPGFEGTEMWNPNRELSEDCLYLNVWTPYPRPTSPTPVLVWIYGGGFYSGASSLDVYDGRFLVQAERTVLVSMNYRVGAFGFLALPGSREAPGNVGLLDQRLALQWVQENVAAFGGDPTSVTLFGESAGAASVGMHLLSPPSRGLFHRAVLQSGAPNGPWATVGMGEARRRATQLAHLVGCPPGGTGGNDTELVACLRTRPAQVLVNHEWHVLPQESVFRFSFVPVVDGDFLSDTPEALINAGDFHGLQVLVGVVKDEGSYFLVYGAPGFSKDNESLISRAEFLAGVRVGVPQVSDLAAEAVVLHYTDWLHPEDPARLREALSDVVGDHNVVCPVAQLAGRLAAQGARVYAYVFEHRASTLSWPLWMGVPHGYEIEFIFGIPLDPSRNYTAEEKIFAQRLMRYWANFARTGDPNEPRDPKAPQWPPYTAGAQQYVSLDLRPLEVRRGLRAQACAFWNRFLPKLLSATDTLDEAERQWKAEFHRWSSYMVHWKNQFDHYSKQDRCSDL

Cholinesterase [3] = biological target: T1, Cholinesterase; test: Inhibition of BuchE (unknown origin) at 10 uM relative to control
Acetylcholinesterase [4] = biological target: T2, Acetylcholinesterase; test: Inhibition of AChE (unknown origin)
[5] = Permeability of compound by PAMPA-BBB assay; format: ADME; details: read-out: permeability
Cholinesterase [6] = biological target: T1, Cholinesterase; test: Competitive inhibition of BuChE (unknown origin) assessed as increase in Km with constant Vmax at 0 to 400 nM using varying concentrations of substrate by Lineweaver-Burk plot analysis; details: dose 0-400 nM
SH-SY5Y [7] = test: Cytotoxicity against human SH-SY5Y cells assessed as reduction in cell viability at <20 uM incubated for 24 hrs by MTT assay; format: toxicity, cell-based
HepG2 [8] = test: Cytotoxicity against human HepG2 cells assessed as reduction in cell viability at <20 uM incubated for 24 hrs by MTT assay; format: toxicity, cell-based; details: hepg2, 24 h
SH-SY5Y [9] = test: Cytotoxicity against human SH-SY5Y cells assessed as reduction in cell viability at 50 uM incubated for 24 hrs by MTT assay relative to control; format: toxicity, cell-based
HepG2 [10] = test: Cytotoxicity against human HepG2 cells assessed as reduction in cell viability at 50 uM incubated for 24 hrs by MTT assay relative to control; format: toxicity, cell-based; details: hepg2, 24 h

Row | Structure (SMILES) | IC50 (Cholinesterase [1]) | inhibition (Acetylcholinesterase [2]) | inhibition (Cholinesterase [3]) | also measured
1 | COc1cccc(C(=O)N(Cc2csc(COc3ccc(C)cc3)n2)CC(C)C)c1 | 970 nM | 1.46% | 91.4% | –
2 | CC(=O)N(Cc1csc(COc2ccc(C)cc2)n1)CC(C)C | 6010 nM | 19.9% | 64.8% | –
3 | CC(C)CN(Cc1csc(COc2ccc(C(F)(F)F)cc2)n1)C(=O)c1ccc2c(c1)OCO2 | 5230 nM | 1.71% | 65.9% | –
4 | CCC(=O)N(Cc1csc(COc2ccc(C)cc2)n1)CC(C)C | 8080 nM | -2.4% | 55.3% | –
5 | Cc1ccc(OCc2nc(CN(CC(C)C)C(=O)c3ccccc3Cl)cs2)cc1 | 3940 nM | – | 72.4% | –
6 | Cc1ccc(OCc2nc(CN(CC(C)C)C(=O)c3ccc(Cl)cc3)cs2)cc1 | 2230 nM | -6.51% | 65.5% | –
7 | CN(Cc1csc(COc2ccc(F)cc2)n1)C(=O)c1ccc2c(c1)OCO2 | – | 12.8% | 31.9% | –
8 | COCc1nc(CN(CC(C)C)C(=O)c2ccc3c(c2)OCO3)cs1 | – | 4.72% | 15.3% | –
9 | CN1c2ccccc2C(NCCCCCCC(=O)CCCCNc2c3c(nc4ccccc24)CCCC3)c2ccc(Cl)cc2S1(=O)=O (centres undefined) | 4 nM | – | – | IC50 (Acetylcholinesterase [4]): 160 nM
10 | COc1ccc(OCc2nc(CN(CC(C)C)C(=O)c3ccc4c(c3)OCO4)cs2)cc1 | 1800 nM | -5.49% | 77.8% | –
11 | CCCCCC(=O)N(Cc1csc(COc2ccc(C)cc2)n1)CC(C)C | 1990 nM | 2.55% | 86.1% | –
12 | CC(C)CN(Cc1csc(COc2ccc(F)cc2)n1)C(=O)S(=O)(=O)c1ccc2ccccc2c1 | – | 20.9% | 40.7% | –
13 | Cc1ccc(OCc2nc(CN(CC(C)C)C(=O)c3ccc(F)cc3)cs2)cc1 | 2210 nM | – | 82.2% | –
14 | CC(=O)[C@H]1CC[C@H]2[C@@H]3CCC4=CC(=O)CC[C@]4(C)[C@H]3CC[C@]12C [PROGESTERONE] | – | – | – | Papp [5]: 8.9 ×10⁻⁶ cm/s
15 | CC(C)CN(Cc1csc(COc2ccc(F)cc2)n1)C(=O)c1ccc2c(c1)OCO2 | 130 nM | -9.02% | 96.4% | inhibition (Cholinesterase [6]): Active; Activity (SH-SY5Y [7]): Non-Toxic; Activity (HepG2 [8]): Non-Toxic; Activity (SH-SY5Y [9]): < 40%; Activity (HepG2 [10]): < 40%; Papp [5]: 4.97 ×10⁻⁶ cm/s
16 | CC(C)CN(Cc1csc(COc2ccc(Cl)cc2)n1)C(=O)c1ccc2c(c1)OCO2 | 240 nM | -9.46% | 91.2% | –
17 | Cc1ccc(OCc2nc(CN(CC(C)C)C(=O)c3cccc(Cl)c3)cs2)cc1 | 860 nM | -3.62% | 97% | –
18 | Cc1ccc(OCc2nc(CN(CC(C)C)C(=O)S(=O)(=O)c3cccnc3)cs2)cc1 | – | 16.5% | 48.3% | –
19 | Cc1ccc(OCc2nc(CN(CC(C)C)C(=O)S(=O)(=O)c3ccccc3)cs2)cc1 | – | 12% | 32.9% | –

Row | Structure (SMILES) | IC50 (Cholinesterase [1]) | inhibition (Acetylcholinesterase [2]) | inhibition (Cholinesterase [3]) | also measured
20 | Cc1ccc(OCc2nc(CN(CC(C)C)C(=O)S(=O)(=O)c3ccc4ccccc4c3)cs2)cc1 | – | 18.7% | 36.5% | –
21 | CNC(=O)Oc1ccc2c(c1)[C@]1(C)CCN(C)[C@]1(C)N2C | 16 nM | – | – | –
22 | Cc1ccc(OCc2nc(CN(CC(C)C)C(=O)c3ccccc3C)cs2)cc1 | 4100 nM | – | 75.2% | –
23 | CC(C)CN(Cc1csc(COc2ccc(F)cc2)n1)C(=O)S(=O)(=O)c1ccccc1 | 8190 nM | 9.12% | 55.1% | –
24 | Cc1ccc(S(=O)(=O)C(=O)N(Cc2csc(COc3ccc(F)cc3)n2)CC(C)C)cc1 | 6850 nM | 14.3% | 64.4% | –
25 | Nc1c2c(nc3ccccc13)CCCC2 | – | – | 0.07% | –
26 | CCCC(=O)N(Cc1csc(COc2ccc(C)cc2)n1)CC(C)C | 4570 nM | 21.2% | 66% | –
27 | Cc1ccc(OCc2nc(CN(CC(C)C)C(=O)c3ccccc3)cs2)cc1 | 1150 nM | 0.25% | 92% | –
28 | COc1ccccc1C(=O)N(Cc1csc(COc2ccc(C)cc2)n1)CC(C)C | – | 2.25% | 26% | –
29 | Cc1ccc(OCc2nc(CN(CC(C)C)C(=O)c3ccc4c(c3)OCO4)cs2)cc1 | 1280 nM | 1.76% | 87.2% | –
30 | Cc1ccc(OCc2nc(CN(CC(C)C)C(=O)c3ccco3)cs2)cc1 | 1670 nM | 1.61% | 87.8% | –
31 | Cc1ccc(OCc2nc(CN(CC(C)C)C(=O)c3cccs3)cs2)cc1 | 2300 nM | -0.31% | 82% | –
32 | Cc1ccc(OCc2nc(CN(CC(C)C)C(=O)c3cccc(C)c3)cs2)cc1 | 1170 nM | -5.65% | 94.1% | –
33 | Cc1ccc(OCc2nc(CN(CC(C)C)C(=O)c3cccc(F)c3)cs2)cc1 | 2430 nM | 0.51% | 78.2% | –
34 | COc1ccc(C(=O)N(Cc2csc(COc3ccc(C)cc3)n2)CC(C)C)cc1 | – | 4.91% | 32.8% | –
35 | Cc1ccc(OCc2nc(CN(CC(C)C)C(=O)c3c(F)cccc3F)cs2)cc1 | 4890 nM | 0.18% | 66.4% | –
36 | Cc1ccc(OCc2nc(CN(CC(C)C)C(=O)S(=O)(=O)c3ccc(C)cc3)cs2)cc1 | – | 10.1% | 38.4% | –
37 | Cc1ccc(OCc2nc(CN(CC(C)C)C(=O)c3ccccc3F)cs2)cc1 | 1390 nM | – | 86.6% | –
38 | Cc1ccc(OCc2nc(CN(CC(C)C)C(=O)c3ccc(C)cc3)cs2)cc1 | 1050 nM | – | 92.6% | –
